Values joined by “and” are separate entries in the source; they are usually repeats but may differ in a detail not shown here. Identical values can stand only once. “Also recorded” adds a separate entry of the source.
Key:
[1] = target: T1, Cyp4a12 (Mus musculus, UniProt Q91WL5); assay: 20-HETE production assay with lysates of Cyp4a12 over-expressing Balb/C cells; format: biochemical, murine; details: 1 μM during the 20-HETE production assay
T1 construct: Murine full-length Cyp4a10 (cDNA clone MGC:58977) and Cyp4a12 (cDNA clone MGC:25972) cDNA clones were purchased from ATCC; expressed in transfected cells; host or cells: conditionally immortalized non-cystic Balb/C (+/+) mouse renal epithelial cells transduced with the lentiviral vector pHR(+)c.Ub.CYP4A12.R(-)W(+); protein lysates
T1 sequence (Q91WL5 38-508): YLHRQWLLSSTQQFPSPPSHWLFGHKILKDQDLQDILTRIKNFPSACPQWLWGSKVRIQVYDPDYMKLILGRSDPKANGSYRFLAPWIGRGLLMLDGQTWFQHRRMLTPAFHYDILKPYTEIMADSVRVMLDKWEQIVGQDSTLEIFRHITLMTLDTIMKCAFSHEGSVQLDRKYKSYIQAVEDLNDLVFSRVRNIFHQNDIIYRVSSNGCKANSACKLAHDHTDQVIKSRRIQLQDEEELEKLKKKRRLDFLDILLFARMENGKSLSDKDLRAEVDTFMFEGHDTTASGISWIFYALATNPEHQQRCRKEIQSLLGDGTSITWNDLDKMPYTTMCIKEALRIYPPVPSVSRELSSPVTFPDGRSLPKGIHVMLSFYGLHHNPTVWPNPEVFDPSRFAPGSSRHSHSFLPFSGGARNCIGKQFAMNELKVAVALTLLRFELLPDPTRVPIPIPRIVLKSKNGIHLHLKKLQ
Procedure: Microsomes were isolated from the cystic BPK and non-cystic Balb/C mouse kidneys as described by Ito O et al. (Am J Physiol Regul Integr Comp Physiol, 280:R822-30, 2001). For the BPK and Balb/C cells, protein lysates were harvested by homogenization and subsequent sonication of the cell pellets. For the 20-HETE production assay, the isolated protein (500 μg) was incubated in 0.5 mL of 100 mM potassium phosphate buffer containing 40 μM cold arachidonic acid and 2 mM NADPH. In some samples, the 20-HETE synthesis inhibitor, HET-0016, was added at a concentration of 1 μM. The reaction was incubated at 37° C. and equilibrated with 100% O2 for 30 minutes. The reaction was stopped by acidification to pH 3.5 with 1M formic acid. The lipids were extracted in the presence of 20-HETE-d6 (2 ng) using 3:1 ethyl acetate:water and dried down under nitrogen. The samples were reconstituted in 1:1 methanol:water and the production of 20-HETE was measured using a liquid chromatograph-triple quadrupole mass spectrometer (ABI 3000, Applied Biosystems, Inc., Foster City, Calif.) as described in Williams J M et al. Hypertension, 49:687-94, 2007.
The functional activity of the cytochrome P450 4A isoforms was determined using liquid chromatography coupled to mass spectrometry in the 20-HETE production assay (FIG. 7B). […]

[2] = tested on: BPK mice; assay: Chronic HET-0016 treatment of cystic BPK mice (kidney mass, cysts); format: in vivo, mouse
Procedure: This study was conducted using “immortalized” BPK mice as previous described by Sweeney W E et al. (Am J Physiol Cell Physiol, 281:C1695-705, 2001). In brief, BPK female heterozygotes (bpk^+/−) were bred with H-2k^b-ts-A58 transgenic males. Compound heterozygotes (bpk^+/−; H-2K^b-ts-A58^+/−) were identified by PCR and backcrossing to produce cystic offspring. Compound heterozygotes were mated to generate cystic (bpk^−/−; H-2K^b-ts-A58^+/±) and non-cystic (bpk^+/−; H-2K^b-ts-A58^+/±) offspring carrying at least one copy of the Immorto transgene (bpk^−/−; H-2K^b-ts-A58^+/±). All of the mice were genotyped for the H-2K^b-ts-A58 transgene by PCR analysis of DNA extracts from tail sections as described in Takacs-Jarrett M et al. Am J Physiol, 275:F802-11, 1998.
Kidney and liver tissues were harvested for qualitative analysis as described in Sweeney W E et al. (Kidney Int, 57:33-40, 2000) at postnatal day 21. Briefly, kidney and liver were fixed in 4.0% paraformaldehyde in phosphate buffer (pH 7.4) for 30 min at 4° C. Tissues were then washed, dehydrated through a graded series of acetone, and fixed in Immunobed embedding medium (Polysciences, Warrington, Pa.). Sections were cut at 4 μm, mounted on glass slides, and stained with hematoxylin or lectins staining the proximal tubule [Lotus tetragonobulus agglutinin (LTA)] and collecting tubule [Dolichol biflorus agglutinin (DBA)]. Segmental nephron cyst localization was characterized by light microscopy, and cystic lesions were quantitated by a morphometric index as described in Nakanishi K et al. (J Am Soc Nephrol, 12:719-25, 2001), Richards W G et al. (J Clin Invest, 101:935-9, 1998), Sweeney W E et al. (Kidney Int, 57:33-40, 2000), and Sweeney W E et al. (Kidney Int, 64:1310-9, 2003).
We administered HET-0016 (10 mg/kg/day), a specific 20-HETE synthesis inhibitor, intraperitoneally on a daily basis from post-natal day 7 to post-natal day 20. On day 21, the mice were sacrificed and the kidneys analyzed. […] Chronic blockade of 20-HETE synthesis lowered the KW/BW ratio to 9.4 in the HET-0016 treated BPK mice (Table 3).

[3] = tested on: Balb/C mice; assay: Chronic HET-0016 treatment of non-cystic Balb/C mice; format: in vivo, mouse; details: 10 mg/kg/day i.p.
[4] = BPK (−/−), 10 mg/kg/day i.p., post-natal day 7-20, day 21
[5] = Balb/c (+/+), post-natal day 7-20, day 21

## N-hydroxy-N-(4-butyl-2-methylphenyl)-formamidine [HET0016]
[1]
  inhibition of 20-HETE synthesis by over-expressed Cyp4a12: > 70%
[2]; [4]
  Body weight: 10.3 ± 1.0^¥ g
  Kidney Weight: 0.97 ± 0.32 g
[2]; BPK (−/−), 10 mg/kg/day i.p., post-natal day 7-20, day 21, 10 mg/kg/day
  KW/BW: 9.4% and 9.4 ± 3.3 %
[2]; BPK mice, 10 mg/kg/day chronic daily, vehicle 1.08 g
  kidney size: 0.43 g
[2]; BPK mice, 10 mg/kg/day i.p.
  kidney size vs vehicle-treated BPK mice (FIG. 4): dramatically smaller
  reduction in body weight vs vehicle: not statistically significant
  reduction of KW/BW ratio vs vehicle: 53%
  reduction of kidney size vs vehicle: 56%
[2]; BPK mice, 10 mg/kg/day, day 21 kidneys, 10 mg/kg/day
  size and number of renal cysts (histology): marked reductions in the size and number of renal cysts; also recorded: dramatic reduction in the DBA-labeled collecting tubule cysts
[2]; BPK mice, 10 mg/kg/day, untreated 4.7+/−0.6
  collecting tubule cystic index (CI): 1.93+/−0.2
[3]; Balb/C mice
  kidney weight, body weight and KW/BW ratio vs vehicle: unchanged
[3]; [5]
  Body weight: 10.5 ± 1.3 g
  KW/BW: 1.3 ± 0.2 %
  Kidney Weight: 0.13 ± 0.02 g
